Test results from patent publication US20240228547A1, “POLYPEPTIDE FOR RESISTING NOVEL CORONAVIRUS AND APPLICATION THEREOF” (INSTITUTE OF MICROBIOLOGY, CHINESE ACADEMY OF SCIENCES, priority 2021, published 2024).

How the values were obtained:
[1] = system: pseudovirus of SARS-CoV-2 variant D614G; settings: for IC50: pseudovirus of variant D614G
[2] = system: pseudovirus of SARS-CoV-2 variant Gamma (P.1); settings: P.1 (Gamma) pseudovirus; for IC50: read-out: IC50, inhibitory effect on pseudovirus, Hela hACE2 cells
[3] = system: SARS-COV-2 original strain and its various variants; assay type: cell-based
[4] = system: pseudovirus of SARS-CoV-2 variant Alpha (B.1.1.7); settings: B.1.1.7 (Alpha) pseudovirus; for IC50: read-out: IC50, inhibitory effect on pseudovirus, Hela hACE2 cells
[5] = system: pseudovirus of SARS-CoV-2 variant Delta (B.1.617.2); settings: B.1.617.2 (Delta) pseudovirus; for IC50: read-out: IC50, inhibitory effect on pseudovirus, Hela hACE2 cells
[6] = system: pseudovirus of SARS-CoV-2 variant Beta (B.1.351); settings: B.1.351 (Beta) pseudovirus; for IC50: read-out: IC50, inhibitory effect on pseudovirus, Hela hACE2 cells
[7] = system: pseudovirus of SARS-CoV-2 variant Kappa (B.1.617.1); settings: for Increase multiple (fold increase in the inhibitory effect compared to the polypeptide P3) / IC50: B.1.617.1 (Kappa) pseudovirus; for IC50: read-out: IC50, inhibitory effect on pseudovirus, Hela hACE2 cells

SMILES: CC[C@H](C)[C@H](NC(=O)CNC(=O)[C@H](CO)NC(=O)[C@@H](NC(=O)[C@H](CC(=O)O)NC(=O)CNC(=O)[C@H](Cc1ccccc1)NC(=O)[C@H](CCCCN)NC(=O)[C@@H](N)C(C)C)[C@@H](C)CC)C(=O)N[C@@H](CC(N)=O)C(=O)N[C@@H](C)C(=O)N[C@@H](CO)C(=O)N[C@H](C(=O)N[C@H](C(=O)N[C@@H](CC(N)=O)C(=O)N[C@H](C(=O)N[C@@H](CCCCN)C(=O)N[C@@H](CCC(=O)O)C(=O)N[C@@H](CCC(=O)O)C(=O)N[C@H](C(=O)N[C@@H](CC(=O)O)C(=O)N[C@@H](CCCNC(=N)N)C(=O)N[C@@H](CC(C)C)C(=O)N[C@@H](Cc1ccc(O)cc1)C(=O)N[C@@H](CCC(=O)O)C(=O)N[C@H](C(=O)N[C@H](C(=O)N[C@@H](CCCCN)C(=O)N[C@@H](CC(N)=O)C(=O)N[C@@H](CC(C)C)C(=O)N[C@@H](CC(N)=O)C(=O)N[C@@H](CCC(=O)O)C(=O)N[C@@H](CO)C(=O)N[C@@H](CC(C)C)C(=O)N[C@H](C(=O)N[C@@H](CC(=O)O)C(=O)N[C@@H](CC(C)C)C(=O)N[C@@H](CCC(N)=O)C(=O)N[C@@H](CCC(=O)O)C(=O)N[C@@H](CC(C)C)C(=O)O)[C@@H](C)CC)C(C)C)C(C)C)[C@@H](C)CC)[C@@H](C)CC)C(C)C)C(C)C [Polypeptide P3-3]
- Increase multiple (fold increase in the inhibitory effect compared to the polypeptide P3) [1]: 5.0
- IC50 [1]: 160 nM
- Increase multiple (fold increase in the inhibitory effect compared to the polypeptide P3) [2]: 7.2
- IC50 [2]: 110 nM
- inhibitory effect compared with the polypeptide P3 (in words) [3]: most obviously improved
- Increase multiple (fold increase in the inhibitory effect compared to the polypeptide P3) [4]: 2.1
- IC50 [4]: 370 nM
- Increase multiple (fold increase in the inhibitory effect compared to the polypeptide P3) [5]: 2.4
- IC50 [5]: 320 nM
- Increase multiple (fold increase in the inhibitory effect compared to the polypeptide P3) [6]: 7.5
- IC50 [6]: 100 nM
- Increase multiple (fold increase in the inhibitory effect compared to the polypeptide P3) [7]: 1.8
- IC50 [7]: 430 nM

SMILES: CC[C@H](C)[C@H](N)C(=O)N[C@@H](CO)C(=O)NCC(=O)N[C@H](C(=O)N[C@@H](CC(N)=O)C(=O)N[C@@H](C)C(=O)N[C@@H](CO)C(=O)N[C@H](C(=O)N[C@H](C(=O)N[C@@H](CC(N)=O)C(=O)N[C@H](C(=O)N[C@@H](CCCCN)C(=O)N[C@@H](CCC(=O)O)C(=O)N[C@@H](CCC(=O)O)C(=O)N[C@H](C(=O)N[C@@H](CC(=O)O)C(=O)N[C@@H](CCCNC(=N)N)C(=O)N[C@@H](CC(C)C)C(=O)N[C@@H](CC(N)=O)C(=O)N[C@@H](CCC(=O)O)C(=O)N[C@H](C(=O)N[C@@H](C)C(=O)N[C@@H](CCCCN)C(=O)N[C@@H](CC(N)=O)C(=O)N[C@@H](CC(C)C)C(=O)N[C@@H](CC(N)=O)C(=O)N[C@@H](CCC(=O)O)C(=O)N[C@@H](CO)C(=O)N[C@@H](CC(C)C)C(=O)N[C@H](C(=O)N[C@@H](CC(=O)O)C(=O)N[C@@H](CC(C)C)C(=O)N[C@@H](CCC(N)=O)C(=O)N[C@@H](CCC(=O)O)C(=O)N[C@@H](CC(C)C)C(=O)O)[C@@H](C)CC)C(C)C)[C@@H](C)CC)[C@@H](C)CC)C(C)C)C(C)C)[C@@H](C)CC [Polypeptide P3-4]
- Increase multiple (fold increase in the inhibitory effect compared to the polypeptide P3) [1]: 2.6
- IC50 [1]: 300 nM
- Increase multiple (fold increase in the inhibitory effect compared to the polypeptide P3) [2]: 3.6
- IC50 [2]: 220 nM
- inhibitory effect compared with the polypeptide P3 (in words) [3]: improved to varying degrees
- Increase multiple (fold increase in the inhibitory effect compared to the polypeptide P3) [4]: 1.3
- IC50 [4]: 590 nM
- Increase multiple (fold increase in the inhibitory effect compared to the polypeptide P3) [5]: 1.4
- IC50 [5]: 550 nM
- Increase multiple (fold increase in the inhibitory effect compared to the polypeptide P3) [6]: 4.0
- IC50 [6]: 200 nM
- Increase multiple (fold increase in the inhibitory effect compared to the polypeptide P3) [7]: 1.6
- IC50 [7]: 480 nM

SMILES: CC[C@H](C)[C@H](N)C(=O)N[C@@H](CO)C(=O)NCC(=O)N[C@H](C(=O)N[C@@H](CC(N)=O)C(=O)N[C@@H](C)C(=O)N[C@@H](CO)C(=O)N[C@H](C(=O)N[C@H](C(=O)N[C@@H](CC(N)=O)C(=O)N[C@H](C(=O)N[C@@H](CCC(N)=O)C(=O)N[C@@H](CCCCN)C(=O)N[C@@H](CCC(=O)O)C(=O)N[C@H](C(=O)N[C@@H](CC(=O)O)C(=O)N[C@@H](CCCNC(=N)N)C(=O)N[C@@H](CC(C)C)C(=O)N[C@@H](CC(N)=O)C(=O)N[C@@H](CCC(=O)O)C(=O)N[C@H](C(=O)N[C@@H](C)C(=O)N[C@@H](CCCCN)C(=O)N[C@@H](CCC(=O)O)C(=O)N[C@@H](CC(C)C)C(=O)N[C@@H](CC(N)=O)C(=O)N[C@@H](CCC(=O)O)C(=O)N[C@@H](CO)C(=O)N[C@@H](CC(C)C)C(=O)N[C@H](C(=O)N[C@@H](CC(=O)O)C(=O)N[C@@H](CC(C)C)C(=O)N[C@@H](CCC(N)=O)C(=O)N[C@@H](CCC(=O)O)C(=O)N[C@@H](CC(C)C)C(=O)O)[C@@H](C)CC)C(C)C)[C@@H](C)CC)[C@@H](C)CC)C(C)C)C(C)C)[C@@H](C)CC [Polypeptide P3-5]
- Increase multiple (fold increase in the inhibitory effect compared to the polypeptide P3) [1]: 0.5
- IC50 [1]: 1470 nM
- Increase multiple (fold increase in the inhibitory effect compared to the polypeptide P3) [2]: 1.3
- IC50 [2]: 630 nM
- inhibitory effect compared with the polypeptide P3 (in words) [3]: decreased slightly
- Increase multiple (fold increase in the inhibitory effect compared to the polypeptide P3) [4]: 0.5
- IC50 [4]: 1430 nM
- Increase multiple (fold increase in the inhibitory effect compared to the polypeptide P3) [5]: 0.4
- IC50 [5]: 1820 nM
- Increase multiple (fold increase in the inhibitory effect compared to the polypeptide P3) [6]: 0.6
- IC50 [6]: 1240 nM
- Increase multiple (fold increase in the inhibitory effect compared to the polypeptide P3) [7]: 0.7
- inhibitory effect on the Kappa variant strain compared with P3 (in words) ([7]; Kappa variant strain): slightly higher than that of P3
- IC50 [7]: 1060 nM
